Data as given in patent US20090069300A1, “ISOQUINOLINYL AND ISOINDOLINYL DERIVATIVES AS HISTAMINE-3 ANTAGONISTS” (Wyeth, priority 2007, published 2009).
Counter-ions that a name gives are not always drawn.

Row | SMILES | melting point [°C]
1 | CC(C)OCCNC(=O)c1ccc(-c2ccc3c(c2)CCN(CCN2CCCC2)C3=O)cc1 (as salt: hydrochloride) [Example 70, N-(2-isopropoxyethyl)-4-[1-oxo-2-(2-pyrrolidin-1-ylethyl)-1,2,3,4-tetrahydroisoquinolin-6-yl]benzamide] | 164 to 166
2 | N#Cc1cccc(-c2ccc3c(c2)CCN(CCN2CCCC2)C3=O)c1 (as salt: hydrochloride) [Example 15, 3-[1-oxo-2-(2-pyrrolidin-1-ylethyl)-1,2,3,4-tetrahydroisoquinolin-6-yl]benzonitrile] | 204 to 206
3 | CCN(C)C(=O)c1ccc(-c2ccc3c(c2)CCN(CCN2CCCC2)C3=O)cc1 (as salt: hydrochloride) [Example 124, N-ethyl-N-methyl-4-[1-oxo-2-(2-pyrrolidin-1-ylethyl)-1,2,3,4-tetrahydroisoquinolin-6-yl]benzamide] | 200 to 201
4 | O=C(NCc1cccs1)c1ccc(-c2ccc3c(c2)CCN(CCN2CCCC2)C3=O)cc1 (as salt: hydrochloride) [Example 121, 4-[1-oxo-2-(2-pyrrolidin-1-ylethyl)-1,2,3,4-tetrahydroisoquinolin-6-yl]-N-(2-thienylmethyl)benzamide] | 211 to 213.5
5 | CNC(=O)c1ccc(Oc2ccc3c(c2)CCN(CCN2CCCC2)C3=O)nc1 (as salt: hydrochloride) [Example 101, N-Methyl-6-(1-oxo-2-(2-(pyrrolidin-1-yl)ethyl)-1,2,3,4-tetrahydro-isoquinolin-6-yloxy)nicotinamide hydrochloride] | 228 to 230
6 | C[C@@H]1CCCN1CCN1CCc2cc(N3CCCC3)ccc2C1=O (as salt: hydrochloride) [Example 165, (R)-2-(2-(2-methylpyrrolidin-1-yl)ethyl)-6-(pyrrolidin-1-yl)-3,4-dihydroisoquinolin-1(2H)-one] | 182 to 183
7 | O=C1c2ccc(-c3cccc(F)c3)cc2CCN1CCN1CCCC1 (as salt: hydrochloride) [Example 18, 6-(3-fluorophenyl)-2-(2-pyrrolidin-1-ylethyl)-3,4-dihydroisoquinolin-1(2H)-one] | 182 to 184
8 | CCNC(=O)c1ccc(-c2ccc3c(c2)CCN(CCN2CCCC2)C3)cc1 (as salt: hydrochloride) [Example 182, N-ethyl-4-[2-(2-pyrrolidin-1-ylethyl)-1,2,3,4-tetrahydroisoquinolin-6-yl]benzamide] | 266 to 268
9 | O=C1c2ccc(-c3ccccc3F)cc2CCN1CCN1CCCC1 (as salt: hydrochloride) [Example 12, 6-(2-fluorophenyl)-2-(2-pyrrolidin-1-ylethyl)-3,4-dihydroisoquinolin-1(2H)-one] | 211 to 213
10 | CN(C)C(=O)c1ccc(-c2ccc3c(c2)CCN(CCN2CCCC2)C3)cc1 (as salt: hydrochloride) [Example 183, N,N-dimethyl-4-[2-(2-pyrrolidin-1-ylethyl)-1,2,3,4-tetrahydroisoquinolin-6-yl]benzamide] | 248 to 250
11 | COc1ccc(-c2ccc3c(c2)CCN(CCN2CCCC2)C3=O)cc1 (as salt: hydrochloride) [Example 23, 6-(4-methoxyphenyl)-2-(2-pyrrolidin-1-ylethyl)-3,4-dihydroisoquinolin-1(2H)-one] | 224 to 225
12 | CC(C)NC(=O)c1ccc(-c2ccc3c(c2)CCN(CCN2CCCC2)C3=O)cc1 (as salt: hydrochloride) [Example 61, N-isopropyl-4-[1-oxo-2-(2-pyrrolidin-1-ylethyl)-1,2,3,4-tetrahydroisoquinolin-6-yl]benzamide] | 257 to 259
13 | O=C1c2ccc(-c3ccccc3)cc2CCN1CCN1CCCC1 (as salt: hydrochloride) [Example 16, 6-phenyl-2-(2-pyrrolidin-1-ylethyl)-3,4-dihydroisoquinolin-1(2H)-one] | 218 to 220
14 | C[C@@H]1CCCN1CCN1CCc2c(cccc2-c2cccc(C#N)c2)C1=O (as salt: hydrochloride) [Example 27, 3-(2-{2-[(2R)-2-methylpyrrolidin-1-yl]ethyl}-1-oxo-1,2,3,4-tetrahydroisoquinolin-5-yl)benzonitrile] | 203 to 205
15 | C[C@@H]1CCCN1CCN1CCc2cc(-c3ccc(C(=O)NC4CCCC4)cc3)ccc2C1=O (as salt: hydrochloride) [Example 80, N-cyclopentyl-4-(2-{2-[(2R)-2-methylpyrrolidin-1-yl]ethyl}-1-oxo-1,2,3,4-tetrahydroisoquinolin-6-yl)benzamide] | 260 to 262
16 | COC(=O)c1ccc(Oc2ccc3c(c2)CCN(CCN2CCCC2)C3=O)cc1 (as salt: hydrochloride) | 215 to 216
17 | CCOCCNC(=O)c1ccc(-c2ccc3c(c2)CCN(CCN2CCCC2)C3=O)cc1 (as salt: hydrochloride) [Example 72, N-(2-ethoxyethyl)-4-[1-oxo-2-(2-pyrrolidin-1-ylethyl)-1,2,3,4-tetrahydroisoquinolin-6-yl]benzamide] | 193 to 195

Row | SMILES | melting point [°C]
18 | C[C@@H]1CCCN1CCN1CCc2cc(C(=O)N3Cc4ccccc4C3)ccc2C1=O (as salt: hydrochloride) [Example 152, 6-(1,3-dihydro-2H-isoindol-2-ylcarbonyl)-2-{2-[(2R)-2-methylpyrrolidin-1-yl]ethyl}-3,4-dihydroisoquinolin-1(2H)-one] | 109 to 110
19 | O=C1c2ccc(-c3cccc(OC(F)(F)F)c3)cc2CCN1CCN1CCCC1 (as salt: hydrochloride) [Example 13, 2-(2-pyrrolidin-1-ylethyl)-6-[3-(trifluoromethoxy)phenyl]-3,4-dihydroisoquinolin-1(2H)-one] | 135 to 137
20 | O=C(c1ccc2c(c1)CCN(CCN1CCCC1)C2=O)N1Cc2ccccc2C1 (as salt: hydrochloride) [Example 156, 6-(isoindoline-2-carbonyl)-2-(2-(pyrrolidin-1-yl)ethyl)-3,4-dihydroisoquinolin-1(2H)-one] | 220 to 221
21 | O=C(c1ccc2c(c1)CCN(CCN1CCCC1)C2=O)N1CCCCC1 (as salt: hydrochloride) [Example 155, 6-(piperidine-1-carbonyl)-2-(2-(pyrrolidin-1-yl)ethyl)-3,4-dihydroisoquinolin-1(2H)-one] | 144 to 147
22 | COc1ccc2c(c1)CCN(CCN1CCCC1)C2=O (as salt: hydrochloride) | 201 to 202
23 | C[C@H]1CCCN1C(=O)c1ccc(-c2ccc3c(c2)CCN(CCN2CCCC2)C3=O)cc1 (as salt: hydrochloride) [Example 81, 6-(4-{[(2S)-2-methylpyrrolidin-1-yl]carbonyl}phenyl)-2-(2-pyrrolidin-1-ylethyl)-3,4-dihydroisoquinolin-1(2H)-one] | 171 to 172
24 | C[C@@H]1CCCN1CCN1CCc2cc(-c3ccc(F)cc3)ccc2C1=O (as salt: hydrochloride) [Example 40, 6-(4-fluorophenyl)-2-{2-[(2R)-2-methylpyrrolidin-1-yl]ethyl}-3,4-dihydroisoquinolin-1(2H)-one] | 236 to 238
25 | CCN(CC)C(=O)c1ccc(-c2ccc3c(c2)CCN(CCN2CCC[C@H]2C)C3=O)cc1 (as salt: hydrochloride) [Example 65, N,N-diethyl-4-(2-{2-[(2R)-2-methylpyrrolidin-1-yl]ethyl}-1-oxo-1,2,3,4-tetrahydroisoquinolin-6-yl)benzamide] | 221 to 222
26 | C[C@@H]1CCCN1CCN1CCc2cc(Oc3ccc(C#N)nc3)ccc2C1=O (as salt: hydrochloride) [Example 51, 5-[(2-{2-[(2R)-2-methylpyrrolidin-1-yl]ethyl}-1-oxo-1,2,3,4-tetrahydroisoquinolin-6-yl)oxy]pyridine-2-carbonitrile] | 218 to 220
27 | O=C(c1ccc(-c2ccc3c(c2)CCN(CCN2CCCC2)C3=O)cc1)N1CCOCC1 (as salt: hydrochloride) [Example 122, 6-[4-(morpholin-4-ylcarbonyl)phenyl]-2-(2-pyrrolidin-1-ylethyl)-3,4-dihydroisoquinolin-1(2H)-one] | 272 to 274
28 | O=C1c2ccc(N3CCCCC3)cc2CCN1CCN1CCCC1 (as salt: hydrochloride) [Example 162, 6-(piperidin-1-yl)-2-(2-(pyrrolidin-1-yl)ethyl)-3,4-dihydroisoquinolin-1(2H)-one] | 245 to 246
29 | N#Cc1ccc(Oc2ccc3c(c2)CCN(CCN2CCCC2)C3=O)cc1 (as salt: hydrochloride) [Example 50, 4-{[1-oxo-2-(2-pyrrolidin-1-ylethyl)-1,2,3,4-tetrahydroisoquinolin-6-yl]oxy}benzonitrile] | 146 to 147
30 | C[C@@H]1CCCN1CCN1CCc2cc(OCc3ccc(C#N)cc3)ccc2C1=O (as salt: hydrochloride) [Example 120, (R)-4-((2-(2-(2-Methylpyrrolidin-1-yl)ethyl)-1-oxo-1,2,3,4-tetra-hydroisoquinolin-6-yloxy)methyl)benzonitrile hydrochloride] | 212 to 214
31 | N#Cc1ccc(Oc2ccc3c(c2)CCN(CCN2CCCC2)C3=O)cn1 (as salt: hydrochloride) [Example 52, 5-{[1-oxo-2-(2-pyrrolidin-1-ylethyl)-1,2,3,4-tetrahydroisoquinolin-6-yl]oxy}pyridine-2-carbonitrile] | 203 to 205
32 | C[C@@H]1CCCN1CCN1CCc2cc(N3CCCCCC3)ccc2C1=O (as salt: hydrochloride) [Example 166, (R)-6-(azepan-1-yl)-2-(2-(2-methylpyrrolidin-1-yl)ethyl)-3,4-dihydroisoquinolin-1(2H)-one] | 182 to 184
33 | O=C(c1ccc(-c2ccc3c(c2)CCN(CCN2CCCC2)C3)cc1)N1CCCC1 (as salt: hydrochloride) [Example 184, 6-[4-(pyrrolidin-1-ylcarbonyl)phenyl]-2-(2-pyrrolidin-1-ylethyl)-1,2,3,4-tetrahydroisoquinoline] | 241 to 242
34 | C[C@@H]1CCCN1CCN1CCc2cc(-c3ccc(C(=O)N4CCCC4)cc3)ccc2C1=O (as salt: hydrochloride) [Example 66, 2-{2-[(2R)-2-methylpyrrolidin-1-yl]ethyl}-6-[4-(pyrrolidin-1-ylcarbonyl)phenyl]-3,4-dihydroisoquinolin-1(2H)-one] | 243 to 244
